Data as given in the Bradley open melting point set (2014).

melting point [°C] | Compound
64 | Cc1ccc([N+](=O)[O-])cc1Cl [2-chloro-4-nitrotoluene] [listing 1 of 2 here]
60 | Cc1ccc([N+](=O)[O-])cc1Cl [2-chloro-4-nitrotoluene] [listing 2 of 2 here]
31 | Cc1ccc(Cl)c(N)c1 [2-chloro-5-methylaniline]
77 | O=[N+]([O-])c1ccc(Cl)c(CO)c1 [2-chloro-5-nitrobenzyl alcohol]
119 | O=C(O)c1ccc(C(F)(F)F)nc1Cl [2-chloro-6-(trifluoromethyl)nicotinic acid]
98 | OB(O)c1ccccc1Cl [2-chlorobenzeneboronic acid]
190 | NS(=O)(=O)c1ccccc1Cl [2-chlorobenzenesulfonamide]
79 | Cc1ccc(S(=O)(=O)CCCl)cc1 [2-chloroethyl p-tolyl sulfone]
160 | OB(O)c1cccnc1Cl [2-chloropyridine-3-boronic acid]
162 | OB(O)c1ccnc(Cl)c1 [2-chloropyridine-4-boronic acid]
48 | O=Cc1ccnc(Cl)c1 [2-chloropyridine-4-carboxaldehyde]
65 | OCc1ccnc(Cl)c1 [2-chloropyridine-4-methanol]
146 | OB(O)c1cc2ccccc2nc1Cl [2-chloroquinoline-3-boronic acid]
67 | N#Cc1ccccc1S(=O)(=O)Cl [2-cyanobenzenesulfonyl chloride]
-53 | O=C1C=CCCC1 [2-cyclohexene-1-one]
-2 | CCCCCCCCC(C)O (stereo unspecified) [2-decanol] [listing 1 of 2 here]
-5 | CCCCCCCCC(C)O (stereo unspecified) [2-decanol] [listing 2 of 2 here]
3 | CCCCCCCCC(C)=O [2-decanone]
85 | O=CC[C@H](O)[C@H](O)CO [2-deoxy-D-ribose]
144 | CCOc1ccc2ccccc2c1C(=O)O [2-ethoxy-1-naphthoic acid]
-52 | CCC(CC)CO [2-ethyl-1-butanol]

melting point [°C] | Compound
97 | CCc1ccccc1B(O)O [2-ethylbenzeneboronic acid]
-59 | CCCCC(CC)C(=O)O (stereo unspecified) [2-ethylhexanoic acid]
-18 | CCc1ccccc1O [2-ethylphenol]
114 | OB(O)c1ccc(C(F)(F)F)cc1F [2-fluoro-4-(trifluoromethyl)benzeneboronic acid]
107 | OB(O)c1cc(C(F)(F)F)ccc1F [2-fluoro-5-(trifluoromethyl)benzeneboronic acid]
170 | O=Cc1ccc(F)c(B(O)O)c1 [2-fluoro-5-formylbenzeneboronic acid]
86 | O=C(O)c1c(F)cccc1C(F)(F)F [2-fluoro-6-(trifluoromethyl)benzoic acid]
104 | OB(O)c1ccccc1F [2-fluorobenzeneboronic acid]
74 | Fc1ccccc1-c1ccccc1 [2-fluorobiphenyl]
15 | Oc1ccccc1F [2-fluorophenol]
346 | O=C(O)c1ccnc(F)c1 [2-fluoropyridine-4-carboxylic acid]
92 | OB(O)c1cc2ccccc2nc1F [2-fluoroquinoline-3-boronic acid]
-87 | Cc1ccccc1F [2-fluorotoluene]
15 | COc1ccc(O)c(C=O)c1 [2-hydroxy-5-methoxybenzaldehyde]
6 | O=C(CO)c1ccccc1 [2-hydroxyacetophenone]
94 | N#Cc1ccccc1O [2-hydroxybenzonitrile]
89 | OCC1COc2ccccc2O1 (stereo unspecified) [2-hydroxymethyl-1,4-benzodioxane]
162 | O=C(O)c1ccccc1I [2-iodobenzoic acid]
79 | Sc1nccs1 [2-mercaptothiazole]
187 | COc1ccc2cc([N+](=O)[O-])ccc2c1C(=O)O [2-methoxy-6-nitronaphthalene-1-carboxylic acid]
30 | COc1ccccc1-c1ccccc1 [2-methoxybiphenyl] [listing 1 of 2 here]

melting point [°C] | Compound
31 | COc1ccccc1-c1ccccc1 [2-methoxybiphenyl] [listing 2 of 2 here]
137 | COc1ncccc1B(O)O [2-methoxypyridine-3-boronic acid]
-40 | CC(O)CC(C)(C)O (stereo unspecified) [2-methyl-2,4-pentanediol]
1 | CC(C)(C)S [2-methyl-2-propanethiol]
98 | Cc1occc1C(=O)O [2-methyl-3-furoic acid]
87 | CC1=C(c2ccccc2)c2ccccc2C1=O [2-methyl-3-phenyl-1H-inden-1-one]
164 | Cc1ccc2cc([N+](=O)[O-])ccc2n1 [2-methyl-6-nitroquinoline]
163 | Cc1ccccc1B(O)O [2-methylbenzeneboronic acid]
3 | Cc1nc2ccccc2o1 [2-methylbenzoxazole]
0 | Cc1ccccc1-c1ccccc1 [2-methylbiphenyl]
6 | CCCCCCCCCCCCCCCC(C)C [2-methylheptadecane]
154 | Cc1ccccc1OCC(=O)O [2-methylphenoxyacetic acid]
-65 | CC(C)C=O [2-methylpropanal]
-69 | C=Cc1ccccc1C [2-methylstyrene]
-63 | Cc1cccs1 [2-methylthiophene]
107 | O=C(Oc1ccc2ccccc2c1)c1ccccc1 [2-naphthyl benzoate]
42 | N#Cc1ccc(C(F)(F)F)cc1[N+](=O)[O-] [2-nitro-4-(trifluoromethyl)benzonitrile]
45 | O=Cc1ccccc1[N+](=O)[O-] [2-nitrobenzaldehyde]
150 | O=[N+]([O-])c1ccccc1B(O)O [2-nitrobenzeneboronic acid]
72 | O=[N+]([O-])c1ccccc1CO [2-nitrobenzyl alcohol]
116 | O=C1Cc2c1cccc2[N+](=O)[O-] [2-nitrobicyclo[4.2.0]octa-1,3,5-trien-7-one]

Compound | melting point [°C]
N#CCc1ccccc1Cl [2-chlorobenzyl_cyanide] | 24
CCC(C)Cl (stereo unspecified) [2-chlorobutane] | -131
OCCCl [2-chloroethanol] [listing 1 of 2 here] | -63
OCCCl [2-chloroethanol] [listing 2 of 2 here] | -67
CCc1ccccc1N [2-ethylaniline] | -44
O=C(Cl)c1ccccc1F [2-fluorobenzoyl chloride] | 5
C#CC(C)(C)O [2-methyl-3-butyn-2-ol] | 3
Cc1ccc([N+](=O)[O-])cc1N [2-methyl-5-nitroaniline] | 107
Cc1cccc(C)c1[N+](=O)[O-] [2-nitro-m-xylene] | 15
COc1ccccc1[N+](=O)[O-] [2-nitroanisole] | 10
O=[N+]([O-])c1ccccc1CBr [2-nitrobenzyl bromide] | 47
O=[N+]([O-])c1ccccc1CCl [2-nitrobenzyl chloride] | 49
O=[N+]([O-])c1ccccc1CCl [2-nitrobenzyl_chloride] | 48
